Assay results from the METLIN SMRT retention time set (Domingo-Almenara et al. 2019).

Experiment: gradient 5% acetonitrile 3 min, to 50% in 2 min, to 85% in 15 min, held 3 min, 100 µL/min
Settings: column: Zorbax Extend-C18 2.1 x 50 mm; eluents: water / acetonitrile, 0.1% formic acid
How it was run: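 Pure standards were analyzed in mixtures of ~100 molecules using HPLC coupled to a quadrupole time-of-flight mass spectrometer, in both positive and negative ionization mode. Separation used a Zorbax Extend-C18 column (2.1 × 50 mm, 1.8 μm) at 100 μL/min, with water and acetonitrile each containing 0.1% formic acid. Dead and dwell volumes were 40 μL and 900 μL, and data were collected over 3 months. Retention time was read from computationally picked adduct peaks, each inspected manually.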

| RP-LC retention time [s] | SMILES |
| --- | --- |
| 791 | O=C(c1ccccc1F)N1N=C(c2cccs2)CC1c1ccc2nccnc2c1 (stereo not drawn) |
| 1050 | Cn1cc(S(=O)(=O)N2CCCCC2)cc1C(=O)N1CCN(c2cccc(Cl)c2)CC1 |
| 573 | COCn1c(-c2ccc(OC)c(OC)c2)nc2ccccc21 |
| 838 | Cc1ccc(N2CC(c3nc(-c4ccccn4)no3)CC2=O)cc1Cl (stereo not drawn) |
| 541 | CN(C)C(=O)c1cccc(C(=O)N(C)C)n1 |
| 1000 | COc1ccc(Cl)cc1NC(=O)NC(C)C(=O)N1CCc2ccccc21 (stereo not drawn) |
| 580 | CCOC(=O)c1nc(N2CCN(c3ccccn3)CC2)c2ccccc2n1 |
| 691 | CCOC(=O)Cc1n[nH]c(CSc2nc3ccccc3s2)n1 |
| 908 | CCC(=O)N(C1CCOCC1)C1CCN(S(=O)(=O)c2cc(C)ccc2C)CC1 |
| 1030 | Cc1cc(C)cc(Nc2nc(C)cc(=O)n2CC(=O)NC(C)CCc2ccccc2)c1 (stereo not drawn) |
| 655 | CC(C)(CO)NCc1ccc(-c2ccc(Cl)cc2)o1 |
| 834 | O=C([C@@H]1OCC(=O)N(C2CC2)[C@H]1c1ccccc1)N1CCN(c2ccccc2)CC1 |
| 1080 | O=C(Cn1cccc1-c1nc(-c2ccc(Cl)cc2)cs1)NCc1ccco1 |
| 928 | COc1cc(-c2noc(-c3nn(-c4ccc(C)c(C)c4)ccc3=O)n2)cc(OC)c1OC |
| 1130 | O=C(Nc1ccccc1F)N1CC(Oc2ccc(-c3nc(-c4ccccc4)no3)cc2)C1 |
| 525 | Cc1noc(C)c1CN1CCC(n2c(C)cnc2-c2ccncc2)C1 (stereo not drawn) |
| 962 | O=C(NCCC1=CCCCC1)c1nc(-c2ccnc(N3CCOCC3)c2)no1 |
| 1070 | CC1CCc2c(sc3ncn4c(=O)n(CC(=O)N5CCc6ccccc6C5)nc4c23)C1 (stereo not drawn) |
| 1210 | CCc1ccc(-c2noc(Cn3c(=O)n(Cc4ccccc4)c(=O)c4sccc43)n2)cc1 |
| 744 | COc1ccc(OC)c(Nc2c(-c3ccccn3)nc3cnccn23)c1 |
| 1050 | Cc1nc(-c2csc(S(=O)(=O)N3CCCC(C(=O)Nc4ccc(Cl)cc4F)C3)c2)no1 (stereo not drawn) |
| 785 | CCOC(=O)c1c(C)[nH]c(C(=O)N2CCCC(C(=O)NCc3ccccc3OC)C2)c1C (stereo not drawn) |

| RP-LC retention time [s] | SMILES |
| --- | --- |
| 740 | Cc1ccc(C)c(NC(=O)N2CCC(N3CCN(Cc4ccccc4)C(=O)C3=O)CC2)c1 |
| 727 | COc1ccc(NC(=O)N2CCC3(CC2)NC(=O)c2ccc(F)cc2N3C)cc1 |
| 563 | CC(C)(NC(=O)C1CCCO1)c1nc2c(c(C(N)=O)n1)OCO2 (stereo not drawn) |
| 1010 | COc1ccc(NC(=O)Nc2nccn(-c3ccc(C(C)C)cc3)c2=O)cc1OC |
| 685 | Cc1ccc2[nH]cc(CCNC(=O)C3CCN(c4ccc(N5CCCCC5)nn4)CC3)c2c1 |
| 885 | COc1ccc(N2CCN(CC(=O)N3CCC(C(N)=O)CC3)CC2)cc1 |
| 991 | O=c1n(Cc2ccc(Cl)cc2)nc2c(S(=O)(=O)N3CCCCCC3)cccn12 |
| 623 | O=C(NCCOc1cccc2cccnc12)c1cnn(-c2ccccc2)n1 |
| 757 | O=C(NCCc1csc(C2CCCN(C(=O)CC3CCCC3)C2)n1)C1CC1 (stereo not drawn) |
| 1060 | CCn1cc(-c2nc(C(=O)NCc3cccc(C)c3)cs2)c2cccnc21 |
| 600 | COc1ccc(S(=O)(=O)NCCCCN2CCOC(c3ccccc3)C2)c(C)c1 (stereo not drawn) |
| 802 | CN(C)CCCn1c2c3ccccc3ccc2c2oc(=O)c3ccccc3c21 |
| 846 | Cc1ccc2c(c1)NC(=O)c1cc(NC(=O)c3ccccc3Br)ccc1O2 |
| 1060 | CCc1nc(-c2csc(S(=O)(=O)N3CCCC(C(=O)Nc4cccc(C)c4C)C3)c2)no1 (stereo not drawn) |
| 667 | Cc1noc(-c2ccc(=O)n(CC(=O)Nc3ccccc3)c2)n1 |
| 591 | O=C(N[C@@H]1CN(Cc2ccc3c(c2)CCO3)C[C@H]1CO)C1CCC1 |
| 819 | Cc1ccn2c(NC(=O)C(C)(C)Oc3ccc(Cl)cc3)c(-c3ccc(F)cc3)nc2c1 |
| 793 | c1ccc2c(-c3nnc(C4CC4)o3)nnc(NC3CCCCC3)c2c1 |
| 777 | COc1ccc(-c2ccnn2-c2ccc(SCC(N)=O)nn2)cc1 |
| 815 | O=C(c1ccco1)N1CCc2cc(-c3ccno3)ccc21 |
| 654 | CC1CCN(c2ncc3c(n2)CCC(C(=O)NCCN2CCc4ccccc4C2)C3)CC1 (stereo not drawn) |
| 702 | Cc1cc(=O)c2cc(C(=O)Nc3nc4ccccc4s3)ccc2[nH]1 |

| RP-LC retention time [s] | SMILES |
| --- | --- |
| 774 | CCOC(=O)C1CCCN(Cc2nc(-c3cc(OC)c(OC)c(OC)c3)no2)C1 (stereo not drawn) |
| 1060 | O=C(NCc1ccco1)C1CCN(c2ncccc2-c2nc(-c3cccc(Cl)c3)no2)CC1 |
| 1070 | Cc1ccc(Cn2cc(-c3noc(-c4ccc(N(C)C)cc4)n3)nn2)cc1 |
| 1230 | Cc1ccc(-c2nnc(Cc3nc(-c4cccc(Cl)c4)no3)o2)cc1C |
| 1050 | C=CCN1C(=O)COc2ccc(-c3csc(NC(=O)c4ccc(C)cc4)n3)cc21 |
| 761 | COc1ccc(CC(=O)N2CCC3(CC2)NC(=O)c2cccc(Cl)c2N3)cc1 |
| 634 | O=C1CSCc2nc3ccccc3n21 |
| 940 | Fc1ccc(-c2noc(-c3ccc(NCC4CCCO4)nc3)n2)cc1 (stereo not drawn) |
| 1020 | CN1C(=O)C(C)(C(=O)N2CCC(Cc3ccccc3)CC2)Oc2cccnc21 (stereo not drawn) |
| 652 | Cc1c(C(=O)Nc2cc(=O)n(C)c(=O)n2C)cccc1[N+](=O)[O-] |
| 823 | Cc1ccc(N2CC(NC(=O)C(=O)c3c[nH]c4ccccc34)CC2=O)cc1 (stereo not drawn) |
| 856 | O=C(C1CCCO1)N1CCN(c2nc3cccnc3n(Cc3ccccc3)c2=O)CC1 (stereo not drawn) |
| 682 | O=C(NCc1ccc(F)cc1F)C1CCc2nc(N3CCOCC3)ncc2C1 (stereo not drawn) |
| 768 | CCOC(=O)c1nc(NCc2cc(OC)ccc2OC)c2ccccc2n1 |
| 615 | O=C(c1cc(-c2ccncc2)n[nH]1)N1CCCC(C(=O)N2CCN(c3ccc(F)cc3)CC2)C1 (stereo not drawn) |
| 766 | CN1C(=O)CO[C@@H](C(=O)Nc2ccc(F)cc2F)[C@@H]1c1ccccc1 |
| 1000 | COc1cccc(N2CCN(S(=O)(=O)c3ccsc3C(=O)NCC(C)C)CC2)c1 |
| 737 | C[C@@H](CN1CCC(Cc2ccccc2)CC1)[C@@H](O)c1ccc(O)cc1 |
| 1120 | O=C(Cn1nc2c(SC3CCCCC3)nccn2c1=O)Nc1ccc(Br)cc1 |
| 687 | Cc1cc(=O)n(CC(=O)Nc2ccc(F)c(F)c2)c(N2CCOCC2)n1 |
| 730 | CCNC(=O)c1cc(N(C)C)nc2c(Cl)cccc12 |
| 620 | CN(C)CCCNC(=O)C(=O)c1c(-c2ccccc2)cc2ccccn12 |

| RP-LC retention time [s] | SMILES |
| --- | --- |
| 1110 | CCc1nc(-c2csc(S(=O)(=O)N3CCCC(C(=O)Nc4ccc(C)c(F)c4)C3)c2)no1 (stereo not drawn) |
| 720 | CCCS(=O)(=O)N1CCCC(c2nc(C(C)C)no2)CCNC(=O)CC1 (stereo not drawn) |
| 811 | Cn1c(=O)c(N2CCC(C(=O)NCCc3ccco3)CC2)nc2cccnc21 |
| 875 | Cc1ccc2[nH]cc(CCNC(=O)CCc3nnc(C(=O)Nc4ccccc4)s3)c2c1 |
| 1010 | Cc1cccc(-c2noc(C3CCCN3C(=O)Nc3ccccc3C)n2)c1 (stereo not drawn) |
| 1010 | CC1=C(C(=O)N2CC(c3noc(COc4ccc(C)cc4)n3)C2)C2(CCCCC2)OC1=O |
| 954 | Cc1nc(Cn2cccc2C(=O)NC2CCCCCCC2)no1 |
| 872 | Cc1oc(C2CCN(S(=O)(=O)c3ccc(C#N)cc3)CC2)nc1C(=O)N1CCCC1 |
| 640 | Cc1ccc(-c2nc(C(=O)N(C)C)c3n2CCCCC3)cc1 |
| 878 | Cc1sc(NC(=O)c2ccccc2F)nc1-c1ccc2c(c1)NC(=O)CO2 |
| 855 | COc1ccc(OCC(=O)N2CCN(c3ccc(-c4nc(C)c(C)s4)cn3)CC2)cc1 |
| 1020 | Cc1cc(C)n(CCC(=O)N2CC(Oc3ccc(-c4nc(-c5ccccc5)no4)cc3)C2)n1 |
| 639 | CCc1ccc(NC(=O)Cn2c(N)nc(CC)c(C)c2=O)cc1 |
| 1090 | O=C(NCCC1=CCCCC1)C1CCN(C(=O)c2cccn2-c2cccnc2)CC1 |
| 768 | O=C(Nc1ccc2c(c1)OCCO2)c1ccc(-c2ccnc(N3CCCC3)n2)cc1 |
| 674 | O=C(NCc1cc(F)cc(F)c1)C1CCN(c2cnc(N3CCCC3)nc2)CC1 |
| 674 | CCn1cnc(S(=O)(=O)N2CCC(C(=O)Nc3cc(C)ccc3OC)CC2)c1 |
| 750 | O=C(Cn1nc2c(c1NC(=O)c1c(F)cccc1Cl)CSC2)NCc1ccco1 |
| 720 | CCCCOc1ccc(C(=O)N2CCN(c3cc(C)nc(N4CCOCC4)n3)CC2)cc1 |
| 1040 | CCc1nc(-c2ccc3c(c2)CCN3C(=O)Cc2ccc(OC)cc2)no1 |

| SMILES | RP-LC retention time [s] |
| --- | --- |
| C[C@@H]1CCC2(NC1)O[C@H]1C[C@H]3[C@@H]4CC=C5C[C@@H](O)CC[C@]5(C)[C@H]4CC[C@]3(C)[C@H]1[C@H]2C (stereo partly drawn) | 757 |
| Cc1cc(OCC(=O)N[C@H](C(=O)O)c2ccccc2)c2c3c(c(=O)oc2c1)CCCC3 | 879 |
